Test results as given in PMC8599855, “Detection of cancer stem cells by EMT-specific biomarker-based peptide ligands” (Scientific Reports, 2021).

Tests used:
SAS xenograft tumor = experiment: Peptide binding in tumor after intra-tumoral injection (IF of excised tumor); type: in vivo, mouse; details: intra-tumoral injection on day 31, tumors excised after 24 h; Unc0642/IR-treated groups versus control; F7 in SAS-EGFP-Fluc, SP in SAS-wt tumors
Excerpt: Figure 5 Evaluation of peptide binding ability in SAS xenograft mouse model after the treatment of Unc0642/IR. (a) Schematic diagram for in vivo EMT induction via the treatment of Unc0642 and radiation. (b) Evaluation of the effect of Unc0642/IR in SAS-EGFP-Fluc-bearing mice by optical bioluminescence image. (c) Tumor burden of each group was monitored at indicated time points. Data represent mean ± SD (n = 5–6/group). *p < 0.05, **p < 0.01, ***p < 0.001 by Student’s t-test. ***p = 0.00058, Ctrl versus Unc0642 on day 14; *p = 0.049, Ctrl versus IR on day 18; **p = 0.0023, Ctrl versus IR on day 21; *p = 0.0179, Ctrl versus IR on day 24; *p = 0.036, Ctrl versus Unc0642 + IR on day 24. (d) The body weights of mice were recorded during the period of monitoring. Data are mean ± SD (n = 5–6/group). (e, f) Mice were given an intra-tumoral injection of peptide. At 24 h later, tumor samples were excised and the signal derived from the peptide was observed using confocal microscopy. Representative confocal micrographs of tissue sections immunolabeled with CD44. The arrowheads indicate the presence of F7 and SP peptide. Blue: DAPI. Scale bar, 20 μm. […]

[1] = 37 °C, ref previous studies; cited from earlier work
Excerpt: Despite the cancer cells captured by F7 or SP peptide were identified as CSCs that expressed CD44, single peptide binding cells (F7+ or SP+) and double peptides binding cells (F7+ /SP+ , as shown in Fig. 2d) were considered as different subpopulations that exist at the different stages of cancer. […] There are several possibilities for these findings. First, the permeability ...

[2] = system: SAS spheres expressing CD44; experiment: Peptide binding to tumor spheres (confocal microscopy); type: cell-based, human; details: fluorescein-labeled peptides, 24 h incubation
Excerpt: Figure 2 Expression of CSC markers corresponding to peptide binding. (a) Phase-contrast photomicrographs of the spheres cultured from SAS-E2-crimson-P2A::ttksr39 cell line using the ultra-low attachment plate. Right panel: adherent cells. magnification, 100×. (b) ICC results showing the expression of representative CSC marker, CD44 and EMT markers, vimentin and nucleolin in spheres (upper panel) and adherent cells (lower panel). E-cadherin is an epithelial cell marker. (c) The peptide binding to tumor spheres which highly expressed CD44. The arrow indicates the presence of F7 and SP peptide. Red: Lissamine Rhodamine labeled F7 peptide, Green: FITC labeled SP peptide, Blue: DAPI; Scale bar, 20 μm. (d) Comparison of peptides binding to spheres and adherent cells. Yellow: colocalization.
SAS cells were seeded in a 6-well cell culture plate with ultra-low attachment (Corning Costar, Tewksbury, MA, USA) at the density of 1 × 10^5 cells/well and incubated for 3–5 days in a 5% CO2 humidified incubator at 37 °C. All measurements on the SAS spheroids were carried out with a diameter of approximately 0.75 mm. For ICC-IF staining, the spheroids were fixed in 3.7% paraformaldehyde, washed with PBS and permeated with 0.1% Triton X-100 for 10 min before blocking with 20% FBS for 10 min at 37 °C, followed by the incubation with anti-CD44 antibody (GTX102111, GeneTex, Irvine, CA, USA) at 4 °C overnight. […]

SAS cells [3] = experiment: Fluorescence-based peptide binding assay (confocal microscopy); type: cell-based, human; details: 50 ng/μl labeled peptide, 37 °C; for Cell uptake: fluorescent signal in cytoplasm: one hour and later
Experimental: Figure 1 Evaluation of peptide binding activity to SAS cells. (a) IF analysis of F7 peptide and SP peptide binding to SAS cells. […] Red: Lissamine Rhodamine labeled F7 peptide, Green: FITC labeled SP peptide, Blue: DAPI; BF, bright field; Scale bar, 10 μm. (b) The kinetics of F7 peptide binding to SAS-EGFP-Fluc cells. Cells were incubated in the presence of 50 ng/μl peptides at 37 °C for the indicated periods of time. (c) The kinetics of SP peptide binding to SAS-E2-crimson-P2A::ttksr39 cells at indicated time points.
SAS-EGFP-Fluc and SAS-E2-crimson-P2A::ttksr39 were seeded on 8-well chamber slides and incubated with fluorescein labeled F7 peptide and SP peptide respectively for the different time points (0, 0.25, 0.5, 1, 2, 4, 8, 12 and 24 h). HEK293 cell lines without expression of vimentin and nucleolin served as a negative control for the specificity of peptides. After removal of the medium and a PBS rinse, the cells were fixed with 3.7% paraformaldehyde for 10 min followed by PBS washing for 3 times. Subsequently, all slides were mounted with VECTASHIELD Mounting Medium with DAPI (cat. H-1200, Vector Labs, Burligame, CA, USA) and covered with cover glasses before visualization under a laser-scanning microscope (Zeiss LSM 880, Jena, Germany) with Zen Blue software (ZEISS, Jena, Germany).

EMT-induced SAS cells = experiment: Flow cytometry analysis of peptide binding to EMT-induced cells; type: cell-based, human; details: 50 ng/μl labeled peptide, 24 h, 37 °C, after Unc0642 and/or IR treatment
Experimental: Figure 4 Evaluation of peptide binding activity to EMT derived cells induced by Unc0642/IR. After treatment of Unc0642 or radiation, EMT derived cells were incubated for 24 h in the presence of 50 ng/μl of fluorescein-labeled F7 (a) and SP peptide (b) at 37 °C respectively. FACS analysis was performed on gated live cells and light scatter parameters were measured using the 488 nm laser. The dot plot represented the particle size (FSC) versus granularity (SSC) of the cell population. The histogram represented the number of cells from P1 and P2 regions displaying a given fluorescence signal. Right graph: the quantitative analysis in the ratio of fluorescein-labeled peptides binding to SAS cells.
The cells were treated for EMT induction as described above. Then, 50 ng/μl of F7 and SP peptides were added into the culture medium and co-incubated for 24 h. The cells were detached and fixed with 3.7% paraformaldehyde for 15 min followed by resuspension in PBS. FACS analysis was performed on gated live cells using a flow cytometer (Beckman Coulter CytoFLEX, Brea, CA, USA).

SAS cells [4] = experiment: Western blot of EMT/CSC markers after in vitro induction of EMT; type: cell-based, human; details: TGF-β1 10 and 20 ng/ml, SAS cells, immunoblotting (Fig. S2)
Experimental: To induce the EMT of SAS cells, cells were seeded in 60 mm^2 dishes at the density of 1 × 10^6 cells/dish overnight and incubated with 1.25 and 10 μM Unc0642. After 24 h, cells were exposed under 2 Gy and 4 Gy of radiation by a RS2000 Series Biological Irradiator (Rad Source Technologies Inc, Buford, GA, USA) and replaced with fresh Unc0642 containing medium every 24 h. The expression of vimentin and E-cadherin were detected by western blotting.
Cultured cells were placed on ice, washed by ice-cold PBS and lysed using CytoBuster Protein Extraction Reagent (cat. 71,009, Bedford, MA, USA) containing Protease Inhibitor Cocktail Set I (cat. 539131, Millipore, Bedford, MA, USA). Cells were then scraped, collected in Eppendorf tubes and the sonicated for 30 min. The lysate was spun down at 12,000 g for 10 min at 4 °C. The protein content was measured using Bradford reagent (BIO-RAD, Hercules, CA, USA). The equal amounts of protein (40 μg) were separated in SDS-PAGE gels (30% Acrylamide/Bis Solution, 29:1, cat. 1610157, BIO-RAD, Hercules, CA, USA) and transferred to PVDF membranes (cat. NEF1002001PK, Perkin-Elmer life sciences, Boston, MA, USA). For immunoblotting, membranes were cut in terms of the molecular weight range prior to hybridization with primary antibody for vimentin (GTX100619, GeneTex, Irvine, CA, USA), nucleolin (GTX132778, GeneTex, Irvine, CA, USA), E-cadherin (GTX50757, GeneTex, Irvine, CA, USA) and b-actin (GTX109639, GeneTex, Irvine, CA, USA) overnight at 4 °C and then incubated with horseradish peroxidase HRP-conjugate goat anti-rabbit IgG (GeneTex, Irvine, CA, USA). Protein signals were visualized using a LumiFast Chemiluminescence Detection Kit (cat. JT96-K001S, T-Pro Biotechnology, Taiwan). Image capture was performed on an ImageQuant LAS4000 biomolecular image (GE healthcare life, Chicago, IL, USA). The intensities of protein bands were quantitated using ImageJ Gel Analysis program. Quantification of protein expression was performed by Image J. b-actin was used as loading control.

Binding to CD44 expressing spheres [2]	Substance	Amount of labeled peptide in tumor tissue (SAS xenograft tumor)	Stability in the presence of serum [1]	Intracellular localisation at 24 h (SAS cells [3])	Cell uptake: fluorescent signal in cytoplasm (SAS cells [3])	Peptide binding to EMT-induced SAS cells (FACS) (EMT-induced SAS cells)	E-cadherin expression (SAS cells [4])	Vimentin expression (SAS cells [4])
able to bind and detect CSCs	SAHGTSTGVPWP [SP peptide]	increased in tumor tissues	high stability	remained at the edge of nucleus and no longer moved	appeared in cytoplasm gradually and accumulated with the incubation time	significantly higher in combined Unc0642- and IR-treated SAS cells		
able to bind and detect CSCs	DMPGTVLP [F7 peptide]	increased in tumor tissues	high stability	remained at the edge of nucleus and no longer moved	appeared in cytoplasm gradually and accumulated with the incubation time	increased with increasing dose of IR and Unc0642		
	TGF-β1: multifunctional cytokine used to induce EMT						downregulated the expression of E-cadherin	upregulated the expression of vimentin
